# According to patent publication US10004701B2, “Methods and compositions for treating infection” (UNIVERSITY OF ROCHESTER, priority 2012, dated 2018):
# Where a name gives a salt, the structure may show the parent alone. Read-outs that look alike come from different tables or passages of the source.
# Assays:
# Assay in all cases: AK assay 384-well format, Prestwick library screening
# E. faecium = format: cell-based, Enterococcus faecium; conditions: for fold induction at 50 µM: Enterococcus faecium, 3 h
# [1] = system: S. aureus strain USA300-0114; format: cell-based, Staphylococcus aureus; conditions: for fold induction at 50 µM: Staphylococcus aureus, USA300, 3 h
# K. pneumoniae = format: cell-based, Klebsiella pneumoniae; conditions: for fold induction at 50 µM: Klebsiella pneumoniae, 3 h
# [2] = system: A. baumannii strain 98-37-09; format: cell-based, Acinetobacter baumannii; conditions: for fold induction at 50 µM: Acinetobacter baumannii, 983709, 3 h
# P. aeruginosa = format: cell-based, Pseudomonas aeruginosa; conditions: for fold induction at 50 µM: Pseudomonas aeruginosa, 3 h
# E. cloacae = format: cell-based, Enterobacter cloacae; conditions: for fold induction at 50 µM: Enterobacter cloacae, 3 h
# E. coli = format: cell-based, Escherichia coli; conditions: for fold induction at 50 µM: Escherichia coli, 3 h
# [3] = 50 μM final drug concentration, cutoff for positive-scoring molecules 3-fold increase, read-out: AK-based Prestwick Library Screening Results, E. faecium (fold increase in extracellular AK activity)
# [4] = 50 μM final drug concentration, cutoff for positive-scoring molecules 3-fold increase, read-out: AK-based Prestwick Library Screening Results, S. aureus (fold increase in extracellular AK activity)
# [5] = 50 μM final drug concentration, cutoff for positive-scoring molecules 3-fold increase, read-out: AK-based Prestwick Library Screening Results, K. pneumoniae (fold increase in extracellular AK activity)
# [6] = 50 μM final drug concentration, cutoff for positive-scoring molecules 3-fold increase, read-out: AK-based Prestwick Library Screening Results, A. baumannii (fold increase in extracellular AK activity)
# [7] = 50 μM final drug concentration, cutoff for positive-scoring molecules 3-fold increase, read-out: AK-based Prestwick Library Screening Results, P. aeruginosa (fold increase in extracellular AK activity)
# [8] = 50 μM final drug concentration, cutoff for positive-scoring molecules 3-fold increase, read-out: AK-based Prestwick Library Screening Results, E. cloacae (fold increase in extracellular AK activity)
# [9] = 50 μM final drug concentration, cutoff for positive-scoring molecules 3-fold increase, read-out: AK-based Prestwick Library Screening Results, E. coli (fold increase in extracellular AK activity)
# [10] = 50 μM final drug concentration, cutoff for positive-scoring molecules 3-fold increase
# [11] = 50 μM final drug concentration, planktonic, […]
smiles,measurement,setting,value
CC(=O)OCC(=O)[C@@]12OC(C)(C)O[C@@H]1C[C@H]1[C@@H]3C[C@H](F)C4=CC(=O)C=C[C@]4(C)[C@@]3(F)[C@@H](O)C[C@@]12C [Fluocinonide],fold induction at 50 µM,E. faecium; [3],1
same,fold induction at 50 µM,[1]; [4],1.1
same,fold induction at 50 µM,K. pneumoniae; [5],0.9
same,fold induction at 50 µM,[2]; [6],0.9
same,fold induction at 50 µM,P. aeruginosa; [7],1.2
same,fold induction at 50 µM,E. cloacae; [8],1.7
same,fold induction at 50 µM,E. coli; [9],1
CC(C)(C)NC[C@H](O)COc1cccc2c1CCCC2=O.Cl [(−)-Levobunolol hydrochloride],"AK-based Prestwick Library Screening Results, E. faecium (fold increase in extracellular AK activity)",E. faecium; [10],1.0
same,"AK-based Prestwick Library Screening Results, S. aureus (fold increase in extracellular AK activity)",[1]; [10],1.0
same,"AK-based Prestwick Library Screening Results, K. pneumoniae (fold increase in extracellular AK activity)",K. pneumoniae; [10],1.0
same,"AK-based Prestwick Library Screening Results, A. baumannii (fold increase in extracellular AK activity)",[2]; [10],1.0
same,"AK-based Prestwick Library Screening Results, P. aeruginosa (fold increase in extracellular AK activity)",P. aeruginosa; [10],1.2
same,"AK-based Prestwick Library Screening Results, E. cloacae (fold increase in extracellular AK activity)",E. cloacae; [10],1.9
same,"AK-based Prestwick Library Screening Results, E. coli (fold increase in extracellular AK activity)",E. coli; [10],1.3
"CC(O)(P(=O)(O)O)P(=O)(O)O [Etidronic acid, disodium salt]",fold induction at 50 µM,E. faecium; [3],1
same,fold induction at 50 µM,[1]; [4],1.2
same,fold induction at 50 µM,K. pneumoniae; [5],1
same,fold induction at 50 µM,[2]; [6],1.2
same,fold induction at 50 µM,P. aeruginosa; [7],1.1
same,fold induction at 50 µM,E. cloacae; [8],1.4
same,fold induction at 50 µM,E. coli; [9],1.3
C[n+]1ccccc1/C=N/O [Pralidoxime chloride],fold induction at 50 µM,"E. faecium; read-out: AK-based Prestwick Library Screening Results, E. faecium (fold increase in extracellular AK activity)",1
same,fold induction at 50 µM,"[1]; read-out: AK-based Prestwick Library Screening Results, S. aureus (fold increase in extracellular AK activity)",1.3
same,fold induction at 50 µM,"K. pneumoniae; read-out: AK-based Prestwick Library Screening Results, K. pneumoniae (fold increase in extracellular AK activity)",1
same,fold induction at 50 µM,"[2]; read-out: AK-based Prestwick Library Screening Results, A. baumannii (fold increase in extracellular AK activity)",1.4
same,fold induction at 50 µM,"P. aeruginosa; read-out: AK-based Prestwick Library Screening Results, P. aeruginosa (fold increase in extracellular AK activity)",1.2
same,fold induction at 50 µM,"E. cloacae; read-out: AK-based Prestwick Library Screening Results, E. cloacae (fold increase in extracellular AK activity)",1.5
same,fold induction at 50 µM,"E. coli; read-out: AK-based Prestwick Library Screening Results, E. coli (fold increase in extracellular AK activity)",1.3
CCCCC1C(=O)N(c2ccccc2)N(c2ccc(O)cc2)C1=O (stereo not shown) [Oxyphenbutazone],"AK-based Prestwick Library Screening Results, E. faecium (fold increase in extracellular AK activity)",E. faecium; [10],0.9
same,"AK-based Prestwick Library Screening Results, S. aureus (fold increase in extracellular AK activity)",[1]; [10],0.4
same,"AK-based Prestwick Library Screening Results, K. pneumoniae (fold increase in extracellular AK activity)",K. pneumoniae; [10],0.5
same,"AK-based Prestwick Library Screening Results, A. baumannii (fold increase in extracellular AK activity)",[2]; [10],0.5
same,"AK-based Prestwick Library Screening Results, P. aeruginosa (fold increase in extracellular AK activity)",P. aeruginosa; [10],0.5
same,"AK-based Prestwick Library Screening Results, E. cloacae (fold increase in extracellular AK activity)",E. cloacae; [10],0.5
same,"AK-based Prestwick Library Screening Results, E. coli (fold increase in extracellular AK activity)",E. coli; [10],0.5
CC[C@]12CCCN3CCc4c(n(c5ccccc45)[C@](O)(C(=O)OC)C1)[C@@H]32 [Epivincamine],"AK-based Prestwick Library Screening Results, E. faecium (fold increase in extracellular AK activity)",E. faecium; [11],1.0
same,"AK-based Prestwick Library Screening Results, S. aureus (fold increase in extracellular AK activity)",[1]; [11],1.0
same,"AK-based Prestwick Library Screening Results, K. pneumoniae (fold increase in extracellular AK activity)",K. pneumoniae; [11],1.2
same,"AK-based Prestwick Library Screening Results, A. baumannii (fold increase in extracellular AK activity)",[2]; [11],1.2
same,"AK-based Prestwick Library Screening Results, P. aeruginosa (fold increase in extracellular AK activity)",P. aeruginosa; [11],1.2
same,"AK-based Prestwick Library Screening Results, E. cloacae (fold increase in extracellular AK activity)",E. cloacae; [11],1.6
same,"AK-based Prestwick Library Screening Results, E. coli (fold increase in extracellular AK activity)",E. coli; [11],1.3
CC(C)(CO)[C@@H](O)C(=O)NCCC(=O)O [calcium salt monohydrate],fold induction at 50 µM,"E. faecium; 50 μM final drug concentration, planktonic, cutoff for positive 3-fold increase, read-out: AK-based Prestwick Library Screening Results, E. faecium (fold increase in extracellular AK activity)",1.1
same,fold induction at 50 µM,"[1]; 50 μM final drug concentration, planktonic, cutoff for positive 3-fold increase, read-out: AK-based Prestwick Library Screening Results, S. aureus (fold increase in extracellular AK activity)",1.1
same,fold induction at 50 µM,"K. pneumoniae; 50 μM final drug concentration, planktonic, cutoff for positive 3-fold increase, read-out: AK-based Prestwick Library Screening Results, K. pneumoniae (fold increase in extracellular AK activity)",1
same,fold induction at 50 µM,"[2]; 50 μM final drug concentration, planktonic, cutoff for positive 3-fold increase, read-out: AK-based Prestwick Library Screening Results, A. baumannii (fold increase in extracellular AK activity)",1.1
same,fold induction at 50 µM,"P. aeruginosa; 50 μM final drug concentration, planktonic, cutoff for positive 3-fold increase, read-out: AK-based Prestwick Library Screening Results, P. aeruginosa (fold increase in extracellular AK activity)",1
same,fold induction at 50 µM,"E. cloacae; 50 μM final drug concentration, planktonic, cutoff for positive 3-fold increase, read-out: AK-based Prestwick Library Screening Results, E. cloacae (fold increase in extracellular AK activity)",1.4
same,fold induction at 50 µM,"E. coli; 50 μM final drug concentration, planktonic, cutoff for positive 3-fold increase, read-out: AK-based Prestwick Library Screening Results, E. coli (fold increase in extracellular AK activity)",1.1
CC(C[N+](C)(C)C)OC(N)=O (stereo not shown) [Bethanechol chloride],fold induction at 50 µM,"E. faecium; planktonic E. faecium, 50 μM final drug concentration, positive cutoff 3-fold increase, read-out: AK-based Prestwick library screening result, E. faecium (fold increase in extracellular AK activity)",0.9
same,fold induction at 50 µM,"[1]; planktonic S. aureus, 50 μM final drug concentration, positive cutoff 3-fold increase, read-out: AK-based Prestwick library screening result, S. aureus (fold increase in extracellular AK activity)",0.7
same,fold induction at 50 µM,"K. pneumoniae; planktonic K. pneumoniae, 50 μM final drug concentration, positive cutoff 3-fold increase, read-out: AK-based Prestwick library screening result, K. pneumoniae (fold increase in extracellular AK activity)",0.7
same,fold induction at 50 µM,"[2]; planktonic A. baumannii, 50 μM final drug concentration, positive cutoff 3-fold increase, read-out: AK-based Prestwick library screening result, A. baumannii (fold increase in extracellular AK activity)",0.8
same,fold induction at 50 µM,"P. aeruginosa; planktonic P. aeruginosa, 50 μM final drug concentration, positive cutoff 3-fold increase, read-out: AK-based Prestwick library screening result, P. aeruginosa (fold increase in extracellular AK activity)",0.7
same,fold induction at 50 µM,"E. cloacae; planktonic E. cloacae, 50 μM final drug concentration, positive cutoff 3-fold increase, read-out: AK-based Prestwick library screening result, E. cloacae (fold increase in extracellular AK activity)",0.9
same,fold induction at 50 µM,"E. coli; planktonic E. coli, 50 μM final drug concentration, positive cutoff 3-fold increase, read-out: AK-based Prestwick library screening result, E. coli (fold increase in extracellular AK activity)",1
CN(C)CCCN1c2ccccc2Sc2ccc(Cl)cc21 [Chlorpromazine hydrochloride],fold induction at 50 µM,"E. faecium; planktonic E. faecium, 50 μM final drug concentration, 384-well, cutoff for positive-scoring molecules 3-fold increase, read-out: AK-based Prestwick Library Screening Results: E. faecium (increase in extracellular AK activity)",1
same,fold induction at 50 µM,"[1]; planktonic S. aureus, 50 μM final drug concentration, 384-well, cutoff for positive-scoring molecules 3-fold increase, read-out: AK-based Prestwick Library Screening Results: S. aureus (increase in extracellular AK activity)",1.4
same,fold induction at 50 µM,"K. pneumoniae; planktonic K. pneumoniae, 50 μM final drug concentration, 384-well, cutoff for positive-scoring molecules 3-fold increase, read-out: AK-based Prestwick Library Screening Results: K. pneumoniae (increase in extracellular AK activity)",1.1
same,fold induction at 50 µM,"[2]; planktonic A. baumannii, 50 μM final drug concentration, 384-well, cutoff for positive-scoring molecules 3-fold increase, read-out: AK-based Prestwick Library Screening Results: A. baumannii (increase in extracellular AK activity)",1.5
same,fold induction at 50 µM,"P. aeruginosa; planktonic P. aeruginosa, 50 μM final drug concentration, 384-well, cutoff for positive-scoring molecules 3-fold increase, read-out: AK-based Prestwick Library Screening Results: P. aeruginosa (increase in extracellular AK activity)",1.1
same,fold induction at 50 µM,"E. cloacae; planktonic E. cloacae, 50 μM final drug concentration, 384-well, cutoff for positive-scoring molecules 3-fold increase, read-out: AK-based Prestwick Library Screening Results: E. cloacae (increase in extracellular AK activity)",1.4
same,fold induction at 50 µM,"E. coli; planktonic E. coli, 50 μM final drug concentration, 384-well, cutoff for positive-scoring molecules 3-fold increase, read-out: AK-based Prestwick Library Screening Results: E. coli (increase in extracellular AK activity)",1.4
COC(=O)C1=CCCN(C)C1 [Arecoline hydrobromide],fold induction at 50 µM,"E. faecium; planktonic E. faecium, 50 μM final drug concentration, 384-well, […], read-out: AK-based Prestwick Library Screening Results: E. faecium (increase in extracellular AK activity)",0.9
same,fold induction at 50 µM,"[1]; planktonic S. aureus, 50 μM final drug concentration, 384-well, […], read-out: AK-based Prestwick Library Screening Results: S. aureus (increase in extracellular AK activity)",0.4
same,fold induction at 50 µM,"K. pneumoniae; planktonic K. pneumoniae, 50 μM final drug concentration, 384-well, […], read-out: AK-based Prestwick Library Screening Results: K. pneumoniae (increase in extracellular AK activity)",0.4
same,fold induction at 50 µM,"[2]; planktonic A. baumannii, 50 μM final drug concentration, 384-well, […], read-out: AK-based Prestwick Library Screening Results: A. baumannii (increase in extracellular AK activity)",0.4
same,fold induction at 50 µM,"P. aeruginosa; planktonic P. aeruginosa, 50 μM final drug concentration, 384-well, […], read-out: AK-based Prestwick Library Screening Results: P. aeruginosa (increase in extracellular AK activity)",0.4
same,fold induction at 50 µM,"E. cloacae; planktonic E. cloacae, 50 μM final drug concentration, 384-well, […], read-out: AK-based Prestwick Library Screening Results: E. cloacae (increase in extracellular AK activity)",0.3
same,fold induction at 50 µM,"E. coli; planktonic E. coli, 50 μM final drug concentration, 384-well, […], read-out: AK-based Prestwick Library Screening Results: E. coli (increase in extracellular AK activity)",0.4
